Reference: patent US20240158457A1, “INTERLEUKIN-18 RECEPTOR BINDING POLYPEPTIDES AND USES THEREOF” (Medikine, Inc., priority 2022, published 2024)
Where a SMILES comes first, the peptide text is derived from it. Bridges are numbered along the chain shown (N, C = ends).

What was measured:
[1] = target: T1, IL-18 Binding Protein (IL-18BP) (Homo sapiens, UniProt O95998); test: Direct binding ELISA for IL-18BP; conditions: C-terminally biotinylated forms of peptides; at up to 100 nM IL-18BP
T1 construct: purchased ACROBiosystems (Acro); R&D Systems ILP-H5253; 119-BP
T1 sequence (O95998 31-194): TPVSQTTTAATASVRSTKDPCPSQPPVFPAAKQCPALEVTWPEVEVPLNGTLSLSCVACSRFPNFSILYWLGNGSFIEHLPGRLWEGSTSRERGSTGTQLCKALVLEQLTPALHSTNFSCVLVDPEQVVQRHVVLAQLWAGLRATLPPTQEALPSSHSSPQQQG
Protocol: Binding of synthetic monomer peptides to IL-18 Binding Protein (IL-18BP) was measured using a direct binding ELISA. Briefly, 96-well ELISA plates were coated with NeutrAvidin (NA) at 5 μg per well in PBS, washed, then blocked with PBS containing 1% BSA. Wells were washed and representative peptides, synthesized with a C-terminal biotin were diluted to 300 nM in assay buffer and added to the NA coated wells. Wells were washed and serial dilutions starting at 100 nM of IL-18R subunits, IL-18BP from either of two sources (Acro #ILP-H5253 and R&D #119-BP), and control IgG Fc fusions) were added to the wells and incubated for 1 hr at 4° C. Then plates were washed and goat anti-human IgG Fc-HRP (Southern Biotech #2048-05) detection antibody was added for 1 hr. Wells were developed with TMB for 5-15 min and the enzyme reaction was stopped with a H2SO4 solution.

[2] = target: T2, IL-18R (Homo sapiens, UniProt O95256+Q13478); test: HEK-BLUE IL18R reporter assay for IL-18BP/IL-18 interaction (agonist activity with and without IL-18BP); type: cell-based; conditions: IL-18BP up to 100 nM; 30 nM dimer 10; FIG. 22B
T2 construct: host or cells: HEK293 (HEK-BLUE IL-18 reporter cell line)
T2 sequence (Q13478 19-541): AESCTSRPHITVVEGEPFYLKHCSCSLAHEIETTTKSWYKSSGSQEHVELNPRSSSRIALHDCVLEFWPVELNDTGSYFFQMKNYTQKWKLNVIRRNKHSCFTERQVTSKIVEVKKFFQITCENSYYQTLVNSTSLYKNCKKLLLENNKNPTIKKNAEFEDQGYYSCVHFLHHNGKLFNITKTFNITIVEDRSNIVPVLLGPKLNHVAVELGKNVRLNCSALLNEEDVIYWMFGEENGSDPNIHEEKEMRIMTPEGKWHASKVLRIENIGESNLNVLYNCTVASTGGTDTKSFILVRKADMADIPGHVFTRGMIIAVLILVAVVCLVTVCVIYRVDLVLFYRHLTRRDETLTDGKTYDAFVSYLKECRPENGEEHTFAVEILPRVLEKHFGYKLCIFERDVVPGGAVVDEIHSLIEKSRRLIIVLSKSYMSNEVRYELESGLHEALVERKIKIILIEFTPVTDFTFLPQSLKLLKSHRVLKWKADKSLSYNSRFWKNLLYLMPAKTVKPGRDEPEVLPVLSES
T2 sequence (O95256 20-599): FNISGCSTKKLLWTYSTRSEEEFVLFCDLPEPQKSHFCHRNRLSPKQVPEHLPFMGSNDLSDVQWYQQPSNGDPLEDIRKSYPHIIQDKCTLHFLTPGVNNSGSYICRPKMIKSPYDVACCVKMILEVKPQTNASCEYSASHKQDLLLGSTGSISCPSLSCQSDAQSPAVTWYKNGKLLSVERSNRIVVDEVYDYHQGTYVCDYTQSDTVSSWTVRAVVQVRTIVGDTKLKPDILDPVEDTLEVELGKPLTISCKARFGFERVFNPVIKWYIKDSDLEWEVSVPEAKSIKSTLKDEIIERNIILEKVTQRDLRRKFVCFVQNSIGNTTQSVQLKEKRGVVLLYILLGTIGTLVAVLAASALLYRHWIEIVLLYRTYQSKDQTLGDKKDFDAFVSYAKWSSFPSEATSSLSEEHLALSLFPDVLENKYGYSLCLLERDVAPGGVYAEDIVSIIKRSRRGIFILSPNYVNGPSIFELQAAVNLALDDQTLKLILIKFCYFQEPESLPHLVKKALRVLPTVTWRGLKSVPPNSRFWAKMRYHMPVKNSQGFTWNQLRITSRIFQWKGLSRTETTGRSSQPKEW
From the text: IL-18 is negatively regulated by a decoy receptor called IL-18 binding protein (IL-18BP), a secreted antagonist that binds IL-18 with extremely high affinity. HEK-BLUE™ IL-18 reporter cell line (InvivoGen #hkb-hmil 18, California, USA) was used to determine the impact of heterodimer peptides composed of IL-18Ra and IL-18Rb binding peptides on the IL-18BP/IL-18 interaction. The IL-18 Reporter assay, as described in detail in Example 2, was used to investigate this interaction with the following modifications.
A serial dilution (7-point, 10-fold) of IL-18BP Fc fusion (Acro #ILP-H5253) starting at 2 μM (20-fold final concentration) was prepared in test medium in a v-bottom polypropylene 96-well plate. Human recombinant IL-18 (R&D Systems #9124-IL-050/CF) and a representative peptide agonist were prepared at 30 pM and 600 nM respectively (both at 20-fold final concentration and at approximately their respective EC70s). […] Absorbance signal at 630 nm was then measured on a plate reader. Half maximal inhibition concentration (IC50) was calculated based on a variable slope and four parameter analysis using GraphPad Prism software. When no inhibition was measured the data points were connected without a curve fit. Absorbance readings were converted to percent total of signal span, for IL-18 and peptide agonist respectively, and graphed as NF-κB reporter activity (% max).

| binding to IL-18BP [1] | inhibition of agonist activity by IL-18BP [2] | Molecule |
| --- | --- | --- |
| did not exhibit binding | – | CC[C@H](C)[C@@H]1NC(=O)[C@H](CCC(=O)O)NC(=O)[C@H](CO)NC(=O)[C@H](CC(C)C)NC(=O)[C@H](Cc2c[nH]cn2)NC(=O)[C@H](CC(=O)O)NC(=O)[C@H](CO)NC(=O)[C@H](CC(C)C)NC(=O)[C@H](Cc2c[nH]c3ccccc23)NC(=O)[C@H](CC(N)=O)NC(=O)[C@@H]2CCCN2C(=O)[C@@H](NC(=O)CNC(=O)CN)CSSC[C@@H](C(=O)NCC(=O)NCC(=O)O)NC(=O)[C@H](Cc2c[nH]c3ccccc23)NC1=O [Dimer 5C09, GGCPNWLSDHLSEIWCGG] (H-GGCPNWLSDHLSEIWCGG-OH; disulfide 3-16; N-terminus and C-terminus assumed) |
| – | does not inhibit | CC[C@H](C)[C@H](NC(=O)[C@@H]1CSSC[C@H](NC(=O)[C@H](CCC(=O)O)NC(=O)[C@H](Cc2ccccc2)NC(=O)[C@H](Cc2ccccc2)NC(=O)CNC(=O)CNC(=O)[C@H](CO)NC(=O)CNC(=O)CCc2cn(CC[C@H](NC(=O)[C@H](CC(C)C)NC(=O)[C@@H]3CSSC[C@H](NC(=O)[C@H](CC(C)C)NC(=O)CNC(=O)CN)C(=O)N[C@@H](Cc4c[nH]c5ccccc45)C(=O)N[C@@H](Cc4ccc(O)cc4)C(=O)N[C@@H](Cc4ccccc4)C(=O)NCC(=O)NCC(=O)N[C@@H]([C@@H](C)O)C(=O)N[C@@H](C(C)C)C(=O)N[C@@H](CCCNC(=N)N)C(=O)NCC(=O)N4CCC[C@H]4C(=O)N3)C(N)=O)nn2)C(=O)N[C@@H](Cc2ccccc2)C(=O)N[C@@H](Cc2ccc(O)cc2)C(=O)N[C@@H](CO)C(=O)N2CCC[C@H]2C(=O)NCC(=O)N[C@@H](Cc2c[nH]cn2)C(=O)N[C@@H](CCC(=O)O)C(=O)N[C@@H](Cc2c[nH]c3ccccc23)C(=O)N1)C(=O)N1CCC[C@H]1C(=O)N[C@@H](CO)C(=O)NCC(=O)NCC(N)=O [Dimer 10] |
| did not exhibit binding | – | CC(C)C[C@H](NC(=O)CNC(=O)CN)C(=O)N[C@H]1CSSC[C@@H](C(=O)N[C@@H](CC(C)C)C(=O)NCC(=O)NCC(=O)O)NC(=O)[C@@H]2CCCN2C(=O)CNC(=O)[C@H](CCCNC(=N)N)NC(=O)[C@H](C(C)C)NC(=O)[C@H]([C@@H](C)O)NC(=O)CNC(=O)CNC(=O)[C@H](Cc2ccccc2)NC(=O)[C@H](Cc2ccc(O)cc2)NC(=O)[C@H](Cc2c[nH]c3ccccc23)NC1=O [Family 2 synthetic construct, GGLCWYFGGTVRGPCLGG] (H-GGLCWYFGGTVRGPCLGG-OH; disulfide 4-15; N-terminus and C-terminus assumed) |
| did not exhibit binding | – | GGELCWRPFSFVDCEEGG [alpha Synthetic Fla Consensus Construct] |
